# PubChem BioAssay AID2060620 (Molecular Pharmacology Branch, DTP, NCI, 2025)
# pIC50: −log10 of the molar value.
# Test system: 328373-195-R-J1-PDC complex spheroids, viability % test/control
# Assay: Anticancer human tumor 328373-195-R-J1-PDC patient-derived head and neck squamous carcinoma cell line growth inhibition [CLK]
# Conditions: for pIC50: curve of first compound; for viability, T/C: stronger effect = lower value
# Method in brief: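 Patient-derived tumor cells grown as complex spheroids with HUVEC endothelial cells and mesenchymal stem cells, treated with drug combinations. Concentrations descend in half-log steps from near clinical Cmax, or from 10 microM if Cmax unknown.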
# [1] = second compound 0.0316 µM, first compound 0.00949 µM
# [2] = second compound 0.0316 µM, first compound 0.03 µM
# [3] = second compound 0.0316 µM, first compound 0.0949 µM
# [4] = second compound 0.0316 µM, first compound 0.3 µM
# [5] = second compound 0.1 µM, first compound 0.00949 µM
# [6] = second compound 0.1 µM, first compound 0.03 µM
# [7] = second compound 0.1 µM, first compound 0.0949 µM
# [8] = second compound 0.1 µM, first compound 0.3 µM
# [9] = second compound 0.316 µM, first compound 0.00949 µM
# [10] = second compound 0.316 µM, first compound 0.03 µM
# [11] = second compound 0.316 µM, first compound 0.0949 µM
# [12] = second compound 0.316 µM, first compound 0.3 µM
# [13] = second compound 1 µM, first compound 0.00949 µM
# [14] = second compound 1 µM, first compound 0.03 µM
# [15] = second compound 1 µM, first compound 0.0949 µM
# [16] = second compound 1 µM, first compound 0.3 µM
# [17] = second compound 3.16 µM, first compound 0.00949 µM
# [18] = second compound 3.16 µM, first compound 0.03 µM
# [19] = second compound 3.16 µM, first compound 0.0949 µM
# [20] = second compound 3.16 µM, first compound 0.3 µM
# [21] = second compound 10 µM, first compound 0.00949 µM
# [22] = second compound 10 µM, first compound 0.03 µM
# [23] = second compound 10 µM, first compound 0.0949 µM
# [24] = second compound 10 µM, first compound 0.3 µM
# [25] = second compound 0.0316 µM, first compound 0.0316 µM
# [26] = second compound 0.0316 µM, first compound 0.1 µM
# [27] = second compound 0.0316 µM, first compound 0.316 µM
# [28] = second compound 0.0316 µM, first compound 1 µM
# [29] = second compound 0.0316 µM, first compound 3.16 µM
# [30] = second compound 0.0316 µM, first compound 10 µM
# [31] = second compound 0.1 µM, first compound 0.0316 µM
# [32] = second compound 0.1 µM, first compound 0.1 µM
# [33] = second compound 0.1 µM, first compound 0.316 µM
# [34] = second compound 0.1 µM, first compound 1 µM
# [35] = second compound 0.1 µM, first compound 3.16 µM
# [36] = second compound 0.1 µM, first compound 10 µM
# [37] = second compound 0.316 µM, first compound 0.0316 µM
# [38] = second compound 0.316 µM, first compound 0.1 µM
# [39] = second compound 0.316 µM, first compound 0.316 µM
# [40] = second compound 0.316 µM, first compound 1 µM
# [41] = second compound 0.316 µM, first compound 3.16 µM
# [42] = second compound 0.316 µM, first compound 10 µM
# [43] = second compound 1 µM, first compound 0.0316 µM
# [44] = second compound 1 µM, first compound 0.1 µM
# [45] = second compound 1 µM, first compound 0.316 µM
# [46] = second compound 1 µM, first compound 1 µM
# [47] = second compound 1 µM, first compound 3.16 µM
# [48] = second compound 1 µM, first compound 10 µM
# [49] = second compound 3.16 µM, first compound 0.0316 µM
# [50] = second compound 3.16 µM, first compound 0.1 µM
# [51] = second compound 3.16 µM, first compound 0.316 µM
# [52] = second compound 3.16 µM, first compound 1 µM
# [53] = second compound 3.16 µM, first compound 3.16 µM
# [54] = second compound 3.16 µM, first compound 10 µM
# [55] = second compound 10 µM, first compound 0.0316 µM
# [56] = second compound 10 µM, first compound 0.1 µM
# [57] = second compound 10 µM, first compound 0.316 µM
# [58] = second compound 10 µM, first compound 1 µM
# [59] = second compound 10 µM, first compound 3.16 µM
# [60] = second compound 10 µM, first compound 10 µM
# 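Further: spheroids exposed to the agents for 7 days.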
smiles,measurement,setting,value
C=CC(=O)Nc1cc(Nc2nccc(-c3cn(C)c4ccccc34)n2)c(OC)cc1N(C)CCN(C)C + CNC(=O)c1ccc(Nc2nc(OC3CCCC3)c3c(-c4ccc5nc(C)oc5c4)c[nH]c3n2)c(OC)c1,pIC50,second compound 0.0316 µM,7.40
same,pIC50,second compound 0.1 µM,> 9.02
same,pIC50,second compound 0.316 µM,> 9.02
same,pIC50,second compound 1 µM,> 9.02
same,pIC50,second compound 3.16 µM,> 9.02
same,pIC50,second compound 10 µM,> 9.02
same,"viability, T/C","second compound 0.0316 µM, first compound 0.000949 µM",53.9%
same,"viability, T/C","second compound 0.0316 µM, first compound 0.003 µM",60.2%
same,"viability, T/C",[1],57.1%
same,"viability, T/C",[2],50.1%
same,"viability, T/C",[3],44%
same,"viability, T/C",[4],28.7%
same,"viability, T/C","second compound 0.1 µM, first compound 0.000949 µM",12.7%
same,"viability, T/C","second compound 0.1 µM, first compound 0.003 µM",11.5%
same,"viability, T/C",[5],10%
same,"viability, T/C",[6],10.6%
same,"viability, T/C",[7],6.8%
same,"viability, T/C",[8],4.77%
same,"viability, T/C","second compound 0.316 µM, first compound 0.000949 µM",10.9%
same,"viability, T/C","second compound 0.316 µM, first compound 0.003 µM",9.46%
same,"viability, T/C",[9],9.6%
same,"viability, T/C",[10],11.1%
same,"viability, T/C",[11],7.49%
same,"viability, T/C",[12],5.37%
same,"viability, T/C","second compound 1 µM, first compound 0.000949 µM",9.22%
same,"viability, T/C","second compound 1 µM, first compound 0.003 µM",11.8%
same,"viability, T/C",[13],9.93%
same,"viability, T/C",[14],9.14%
same,"viability, T/C",[15],7.31%
same,"viability, T/C",[16],3.84%
same,"viability, T/C","second compound 3.16 µM, first compound 0.000949 µM",10.8%
same,"viability, T/C","second compound 3.16 µM, first compound 0.003 µM",9.2%
same,"viability, T/C",[17],10.8%
same,"viability, T/C",[18],10.1%
same,"viability, T/C",[19],8.03%
same,"viability, T/C",[20],3.03%
same,"viability, T/C","second compound 10 µM, first compound 0.000949 µM",12%
same,"viability, T/C","second compound 10 µM, first compound 0.003 µM",10.6%
same,"viability, T/C",[21],11.6%
same,"viability, T/C",[22],11.5%
same,"viability, T/C",[23],9.82%
same,"viability, T/C",[24],3.85%
CC1(C)CCC(CN2CCN(c3ccc(C(=O)NS(=O)(=O)c4ccc(NCC5CCOCC5)c([N+](=O)[O-])c4)c(Oc4cnc5[nH]ccc5c4)c3)CC2)=C(c2ccc(Cl)cc2)C1 + CNC(=O)c1ccc(Nc2nc(OC3CCCC3)c3c(-c4ccc5nc(C)oc5c4)c[nH]c3n2)c(OC)c1,pIC50,second compound 0.0316 µM,5.86
same,pIC50,second compound 0.1 µM,> 7.50
same,pIC50,second compound 0.316 µM,> 7.50
same,pIC50,second compound 1 µM,> 7.50
same,pIC50,second compound 3.16 µM,> 7.50
same,pIC50,second compound 10 µM,> 7.50
same,"viability, T/C",[25],55.4%
same,"viability, T/C",[26],54.7%
same,"viability, T/C",[27],51.1%
same,"viability, T/C",[28],55.7%
same,"viability, T/C",[29],39.5%
same,"viability, T/C",[30],7.81%
same,"viability, T/C",[31],9.96%
same,"viability, T/C",[32],10.7%
same,"viability, T/C",[33],12.1%
same,"viability, T/C",[34],11.7%
same,"viability, T/C",[35],11.5%
same,"viability, T/C",[36],6.36%
same,"viability, T/C",[37],10%
same,"viability, T/C",[38],10.9%
same,"viability, T/C",[39],10.2%
same,"viability, T/C",[40],9.51%
same,"viability, T/C",[41],8.53%
same,"viability, T/C",[42],6.4%
same,"viability, T/C",[43],7.73%
same,"viability, T/C",[44],8.42%
same,"viability, T/C",[45],10.8%
same,"viability, T/C",[46],10.6%
same,"viability, T/C",[47],9.13%
same,"viability, T/C",[48],6.23%
same,"viability, T/C",[49],8.9%
same,"viability, T/C",[50],11.5%
same,"viability, T/C",[51],10.7%
same,"viability, T/C",[52],10.2%
same,"viability, T/C",[53],9.43%
same,"viability, T/C",[54],6.44%
same,"viability, T/C",[55],12.1%
same,"viability, T/C",[56],9.87%
same,"viability, T/C",[57],10.2%
same,"viability, T/C",[58],11.4%
same,"viability, T/C",[59],12.4%
same,"viability, T/C",[60],11.9%
NC(=O)C(=Cn1cnc(-c2cc(C(F)(F)F)cc(C(F)(F)F)c2)n1)c1cncnc1 + CNC(=O)c1ccc(Nc2nc(OC3CCCC3)c3c(-c4ccc5nc(C)oc5c4)c[nH]c3n2)c(OC)c1,pIC50,second compound 0.0316 µM,> 8.02
same,pIC50,second compound 0.1 µM,> 8.02
same,pIC50,second compound 0.316 µM,> 8.02
same,pIC50,second compound 1 µM,> 8.02
same,pIC50,second compound 3.16 µM,> 8.02
same,pIC50,second compound 10 µM,> 8.02
same,"viability, T/C",[1],38.7%
same,"viability, T/C",[2],20.8%
same,"viability, T/C",[3],0.53%
same,"viability, T/C",[4],0.2%
same,"viability, T/C","second compound 0.0316 µM, first compound 0.949 µM",0.1%
same,"viability, T/C","second compound 0.0316 µM, first compound 3 µM",0.07%
same,"viability, T/C",[5],15.9%
same,"viability, T/C",[6],3.9%
same,"viability, T/C",[7],0.26%
same,"viability, T/C",[8],0.16%
same,"viability, T/C","second compound 0.1 µM, first compound 0.949 µM",0.11%
same,"viability, T/C","second compound 0.1 µM, first compound 3 µM",0.06%
same,"viability, T/C",[9],6.88%
same,"viability, T/C",[10],2.56%
same,"viability, T/C",[11],0.37%
same,"viability, T/C",[12],0.09%
same,"viability, T/C","second compound 0.316 µM, first compound 0.949 µM",0.1%
same,"viability, T/C","second compound 0.316 µM, first compound 3 µM",1.78%
same,"viability, T/C",[13],5.63%
same,"viability, T/C",[14],1.81%
same,"viability, T/C",[15],0.17%
same,"viability, T/C",[16],0.06%
same,"viability, T/C","second compound 1 µM, first compound 0.949 µM",0.08%
same,"viability, T/C","second compound 1 µM, first compound 3 µM",0.06%
same,"viability, T/C",[17],5.68%
same,"viability, T/C",[18],1.86%
same,"viability, T/C",[19],0.15%
same,"viability, T/C",[20],0.15%
same,"viability, T/C","second compound 3.16 µM, first compound 0.949 µM",1.8%
same,"viability, T/C","second compound 3.16 µM, first compound 3 µM",0.15%
same,"viability, T/C",[21],5.83%
same,"viability, T/C",[22],2.16%
same,"viability, T/C",[23],0.18%
same,"viability, T/C",[24],0.11%
same,"viability, T/C","second compound 10 µM, first compound 0.949 µM",0.18%
same,"viability, T/C","second compound 10 µM, first compound 3 µM",0.15%
Nc1ccccc1NC(=O)c1ccc(CNC(=O)OCc2cccnc2)cc1 + CNC(=O)c1ccc(Nc2nc(OC3CCCC3)c3c(-c4ccc5nc(C)oc5c4)c[nH]c3n2)c(OC)c1,pIC50,second compound 0.0316 µM,7.26
same,pIC50,second compound 0.1 µM,> 7.50
same,pIC50,second compound 0.316 µM,> 7.50
same,pIC50,second compound 1 µM,> 7.50
same,pIC50,second compound 3.16 µM,> 7.50
same,pIC50,second compound 10 µM,> 7.50
same,"viability, T/C",[25],54.2%
same,"viability, T/C",[26],46.5%
same,"viability, T/C",[27],35.2%
same,"viability, T/C",[28],23.1%
same,"viability, T/C",[29],19.5%
same,"viability, T/C",[30],4.85%
same,"viability, T/C",[31],12.5%
same,"viability, T/C",[32],11.8%
same,"viability, T/C",[33],10.5%
same,"viability, T/C",[34],12.9%
same,"viability, T/C",[35],13.8%
same,"viability, T/C",[36],4.28%
same,"viability, T/C",[37],9.94%
same,"viability, T/C",[38],9.86%
same,"viability, T/C",[39],8.75%
same,"viability, T/C",[40],9.9%
same,"viability, T/C",[41],15.7%
same,"viability, T/C",[42],4.12%
same,"viability, T/C",[43],9.33%
same,"viability, T/C",[44],7.31%
same,"viability, T/C",[45],9.56%
same,"viability, T/C",[46],11.4%
same,"viability, T/C",[47],14.1%
same,"viability, T/C",[48],3.25%
same,"viability, T/C",[49],9.23%
same,"viability, T/C",[50],8.04%
same,"viability, T/C",[51],10.8%
same,"viability, T/C",[52],10.7%
same,"viability, T/C",[53],15.6%
same,"viability, T/C",[54],3.34%
same,"viability, T/C",[55],12.2%
same,"viability, T/C",[56],9.96%
same,"viability, T/C",[57],10.2%
same,"viability, T/C",[58],12.4%
same,"viability, T/C",[59],15.5%
same,"viability, T/C",[60],3.38%
